Values quoted from earlier work as cited in patent US20110251239A1, “COMBINATION THERAPY FOR THE TREATMENT OF DEMENTIA” (EISAI INC., priority 2010, published 2011).

Tests used:
[1] = system: CYP450 enzymes (CYP1A2, -2A6, -2C9, -2D6, -2E1, -3A4)
[2] = system: cytochrome P450 isozymes CYP1A2, CYP2C9, CYP2E1 and CYP3A4/5

CC12CC3CC(C)(C1)CC(N)(C3)C2 [memantine, 1-amino-3,5-dimethyl adamantane]
inhibition of CYP450 enzymes [1]: minimal inhibition
induction of cytochrome P450 isozymes [2]: does not induce
